Experimental data taken from patent US9884825B2, “Curcumin analogs and methods of making and using thereof” (Georgia State University Research Foundation, Inc., priority 2012, dated 2018).
Read-outs that look alike come from different tables or passages of the source.

Assays:
[1] = test system: human cervical cancer cells (HeLa); test: MTT cytotoxicity assay, HeLa cells; assay type: cell-based; details: for IC50: Homo sapiens; for cytotoxicity against HeLa cells, in words: screening at 50 μM, 20 μM and 2 μM (FIGS. 1-2)
Protocol: (§1) Two cell human cancer cell lines were used in this study: human cervical cancer cells (HeLa) and human embryonic kidney 293 cells (Hek). The cell lines were obtained from ATCC (Rockville, Md., USA). Cell lines were cultured at 37° C. and 5% CO2 in DMEM medium with 10% fetal bovine serum (FBS) and 1% penicillin/streptomycin (all obtained from GibcoBRL, Grand Island, N.Y.). Cells were passaged three times weekly by trypsinisation with 0.25% trypsin/0.02% EDTA solution (Sigma) into 75 cm^2 tissue culture flasks (Nunc, Denamark).
(§2) Both human cervical cancer cells (HeLa) and human embryonic kidney 293 cells (Hek) cell lines were seeded into 96-well plate (2.5×10^4 in 100 μL per well). Testing compounds were dissolved or suspended in DMSO to make 10 mM stock solutions. Addition of compounds was performed after adherent cells reached 40-50% confluence. After incubation for 48 h at 37° C. in humidified atmosphere with 5% CO2, 10 μL of MTT (5 mg/mL in PBS) was added to each well and incubated for another 4 h. The culture medium was then aspirated and 100 μL of DMSO was added to each well. Optical densities at 490 nm were measured by microplate reader (PERKINELMER VICTOR 3V model 1420). All tests were performed in triplicates. Doxorubicin was used as a positive control and the same amount DMSO without compound was used as negative control. IC50 values were obtained from the curve fitting by using Sigma plot10.

[2] = test system: human embryonic kidney 293 cells (Hek); test: MTT cytotoxicity assay, Hek cells; assay type: cell-based; details: Hek 293 cells, 48 h incubation
Protocol: as §1, §2

KB cell = test: Cytotoxicity against KB cell line; assay type: cell-based; details: Homo sapiens, mean ± spread, unit inferred, read-out: IC50 KB cell (Table 6)
DU145 cell = test: Cytotoxicity against DU145 cell line; assay type: cell-based; details: Homo sapiens, DU-145, mean ± spread, unit inferred, read-out: IC50 DU145 cell (Table 6)
PC3 cell = test: Cytotoxicity against PC3 cell line; assay type: cell-based; details: Homo sapiens, PC-3, mean ± spread, unit inferred, read-out: IC50 PC3 cell (Table 6)
Molt4 cell = test: Cytotoxicity against MOLT4 cell line; assay type: cell-based; details: Homo sapiens, MOLT-4; Table 3, SM compounds
[3] = HeLa cells, MTT assay, 48 h incubation, read-out: IC50 (μM) Hela
[4] = HeLa cells, MTT assay, range or bound stated in text, read-out: IC50 against HeLa cancer cell lines
[5] = HeLa cell, mean ± spread, unit inferred, read-out: IC50 HeLa cell (Table 6)
[6] = HeLa, Table 3, SM compounds, read-out: IC50 (μM) against Hela cell

Row | Compound | melting point [°C] | IC50 [1, 5] [µM] | IC50 (KB cell) [nM] | IC50 (DU145 cell) [nM] | IC50 (PC3 cell) [nM] | other results
1 | Cc1ccc(S(=O)(=O)N2C/C(=C\c3ccc(Br)cc3)C(=O)/C(=C/c3ccc(Br)cc3)C2)cc1 [3a, 3,5-Bis(4-bromobenzylidene)-1-tosylpiperidin-4-one] | 214 | – | – | – | – | IC50 [1, 3]: 0.28 µM; IC50 [1, 4]: 0.3 to 1.5 µM; cytotoxicity against HeLa cells, in words ([1]; MTT assay): very good activity; IC50 [2]: 1.39 µM; IC50 ([2]; Homo sapiens, HEK293, 48 h): 1.24 to 3.54 µM
2 | Cc1ccc(S(=O)(=O)N2C/C(=C\c3ccc(F)cc3)C(=O)/C(=C/c3ccc(F)cc3)C2)cc1 [3j, 3,5-Bis(4-fluorobenzylidene)-1-tosylpiperidin-4-one] | 204 | – | – | – | – | IC50 [1, 3]: 0.61 µM; IC50 [1, 4]: 0.3 to 1.5 µM; IC50 [2]: 1.24 µM; IC50 ([2]; Homo sapiens, HEK293, 48 h): 1.24 to 3.54 µM
3 | O=C1/C(=C/c2ccc(Cl)cc2)CN(S(=O)(=O)c2ccccc2)C/C1=C\c1ccc(Cl)cc1 [4e, 3,5-Bis(4-chlorobenzylidene)-1-(phenylsulfonyl)piperidin-4-one] | 237 | – | – | – | – | IC50 [1, 3]: 0.85 µM; IC50 [1, 4]: 0.3 to 1.5 µM; cytotoxicity against HeLa cells, in words ([1]; MTT assay): very good activity; IC50 [2]: 1.97 µM; IC50 ([2]; Homo sapiens, HEK293, 48 h): 1.24 to 3.54 µM
4 | O=C1/C(=C/c2ccc(Br)cc2)CN(S(=O)(=O)c2ccccc2)C/C1=C\c1ccc(Br)cc1 [4i, 3,5-Bis(4-bromobenzylidene)-1-(phenylsulfonyl)piperidin-4-one] | 247 | – | – | – | – | IC50 [1, 3]: 1.44 µM; IC50 [1, 4]: 0.3 to 1.5 µM
5 | CCN1C/C(=C\c2ccc(C(C)C)cc2)C(=O)/C(=C/c2ccc(C(C)C)cc2)C1 [6g, 1-Ethyl-3,5-bis(4-isopropylbenzylidene)piperidin-4-one] | – | – | – | – | – | IC50 [1, 3]: 0.86 µM; IC50 [1, 4]: < 1 µM; cytotoxicity against HeLa cells, in words ([1]; MTT assay): very good activity; IC50 [2]: 1.78 µM; IC50 ([2]; Homo sapiens, HEK293, 48 h): 1.24 to 3.54 µM
6 | CCCCn1cc(CN2CC(=Cc3ccc(CC)cc3)C(=O)C(=Cc3ccc(CC)cc3)C2)nn1 [12b, 1-((1-Butyl-1H-1,2,3-triazol-4-yl)methyl)-3,5-bis(4-ethylbenzylidene)piperidin-4-one] | 150 | – | – | – | – | –
7 | CCCCCn1cc(CN2CC(=Cc3ccc(CC)cc3)C(=O)C(=Cc3ccc(CC)cc3)C2)nn1 [12c, 3,5-Bis(4-ethylbenzylidene)-1-((1-pentyl-1H-1,2,3-triazol-4-yl)methyl)piperidin-4-one] | 156 | – | – | – | – | –
8 | CCCn1cc(CN2CC(=Cc3ccc(C(C)C)cc3)C(=O)C(=Cc3ccc(C(C)C)cc3)C2)nn1 [13a, 3,5-Bis(4-isopropylbenzylidene)-1-((1-propyl-1H-1,2,3-triazol-4-yl)methyl)piperidin-4-one] | 144 | – | – | – | – | –
9 | CCCCn1cc(CN2CC(=Cc3ccc(C(C)C)cc3)C(=O)C(=Cc3ccc(C(C)C)cc3)C2)nn1 [13b, 1-((1-Butyl-1H-1,2,3-triazol-4-yl)methyl)-3,5-bis(4-isopropylbenzylidene)piperidin-4-one] | 145 | – | – | – | – | –
10 | CCCCCn1cc(CN2CC(=Cc3ccc(C(C)C)cc3)C(=O)C(=Cc3ccc(C(C)C)cc3)C2)nn1 [13c, 3,5-Bis(4-isopropylbenzylidene)-1-((1-pentyl-1H-1,2,3-triazol-4-yl)methyl)piperidin-4-one] | 143 | – | – | – | – | –
11 | COc1cccc2c1C(=O)c1c(O)c3c(c(O)c1C2=O)C[C@@](O)(C(=O)CO)C[C@@H]3O[C@H]1C[C@H](N)[C@H](O)[C@H](C)O1 [Doxorubicin, reference compound] | – | 0.96 ± 0.27 | 400 ± 110 | 470 ± 250 | 230 ± 10 | IC50 [1, 3]: 2.89 µM; IC50 ([2]; Homo sapiens, HEK293, 48 h): 0.95 µM
12 | COc1cc(/C=C2\CC/C(=C\c3ccc(OCCBr)c(OC)c3)C2=O)ccc1OCCBr [SM216] | – | – | – | – | – | IC50 [1, 6]: > 2.5 µM; IC50 (Molt4 cell): > 50 µM
13 | COc1cc(/C=C2\CC/C(=C\c3ccc(OCCN4CCOCC4)c(OC)c3)C2=O)ccc1OCCN1CCOCC1 [SM218] | – | – | – | – | – | IC50 [1, 6]: > 2.5 µM; IC50 (Molt4 cell): > 2.5 µM
14 | CCc1ccc(/C=C2\CN(Cc3cn(CCNc4ccnc5cc(Cl)ccc45)nn3)C/C(=C\c3ccc(CC)cc3)C2=O)cc1 [SR13] | – | 5.3 ± 2.8 | 3700 ± 210 | 6500 ± 3000 | 3700 ± 2100 | –
15 | O=C1/C(=C/c2ccc(Br)cc2)CN(Cc2cn(CCNc3ccnc4cc(Cl)ccc34)nn2)C/C1=C\c1ccc(Br)cc1 [SR14] | – | 2.7 ± 1.3 | 1200 ± 320 | 6600 ± 4600 | 1500 ± 240 | –
16 | O=C1/C(=C/c2ccc(Cl)cc2)CN(Cc2cn(CCNc3ccnc4cc(Cl)ccc34)nn2)C/C1=C\c1ccc(Cl)cc1 [SR15] | – | 2.1 ± 0.35 | 3000 ± 310 | 3100 ± 1300 | 3100 ± 1800 | –
17 | O=C1/C(=C/c2ccc(F)cc2)CN(Cc2cn(CCNc3ccnc4cc(Cl)ccc34)nn2)C/C1=C\c1ccc(F)cc1 [SR16] | – | 2.2 ± 0.93 | 2600 ± 410 | 3700 ± 2400 | 2000 ± 50 | –
18 | O=C1/C(=C/c2cccc(Br)c2)CN(Cc2cn(CCNc3ccnc4cc(Cl)ccc34)nn2)C/C1=C\c1cccc(Br)c1 [SR17] | – | 2.5 ± 1.2 | 4300 ± 2400 | 9600 ± 7300 | 2800 ± 800 | –
19 | Cc1ccc(/C=C2\CN(Cc3cn(CCCNc4ccnc5cc(Cl)ccc45)nn3)C/C(=C\c3ccc(C)cc3)C2=O)cc1 [SR34] | – | 2.8 ± 0.93 | 4700 ± 1100 | 4000 ± 490 | 2700 ± 800 | –
20 | O=C1/C(=C/c2ccc(Br)cc2)CN(Cc2cn(CCCNc3ccnc4cc(Cl)ccc34)nn2)C/C1=C\c1ccc(Br)cc1 [SR36] | – | 2 ± 1.2 | 1500 ± 300 | 1900 ± 590 | 1700 ± 240 | –
21 | COc1ccc(/C=C2\CN(Cc3cn(CCCNc4ccnc5cc(Cl)ccc45)nn3)C/C(=C\c3ccc(OC)cc3)C2=O)cc1 [SR37] | – | 5 ± 2.2 | 4700 ± 870 | 6700 ± 1900 | 11000 ± 2700 | –
22 | COc1ccc(/C=C2\CN(Cc3cn(CCCNc4ccnc5cc(Cl)ccc45)nn3)C/C(=C\c3ccc(OC)c(OC)c3)C2=O)cc1OC [SR38] | – | 2.5 ± 1.3 | 2100 ± 50 | 6700 ± 4400 | 2600 ± 400 | –
23 | O=C1/C(=C/c2ccc(F)cc2)CN(Cc2cn(CCCNc3ccnc4cc(Cl)ccc34)nn2)C/C1=C\c1ccc(F)cc1 [SR39] | – | 2.6 ± 1.4 | 2600 ± 690 | 5300 ± 2800 | 3000 ± 750 | –
24 | O=C1/C(=C/c2ccc(Cl)cc2)CN(Cc2cn(CCCNc3ccnc4cc(Cl)ccc34)nn2)C/C1=C\c1ccc(Cl)cc1 [SR40] | – | 1.8 ± 0.65 | 1800 ± 290 | 1900 ± 620 | 1800 ± 680 | –

Continued, in another order:

Row | melting point [°C] | Compound | IC50 [1, 5] [µM] | IC50 (KB cell) [nM] | IC50 (DU145 cell) [nM] | IC50 (PC3 cell) [nM] | other results
25 | 182 | CCCn1cc(CN2CC(=Cc3ccc(C(C)(C)C)cc3)C(=O)C(=Cc3ccc(C(C)(C)C)cc3)C2)nn1 [14a, 3,5-Bis(4-tert-butylbenzylidene)-1-((1-propyl-1H-1,2,3-triazol-4-yl)methyl)piperidin-4-one] | – | – | – | – | –
26 | 145 | CCCCn1cc(CN2CC(=Cc3ccc(C(C)(C)C)cc3)C(=O)C(=Cc3ccc(C(C)(C)C)cc3)C2)nn1 [14b, 1-[(1-Butyl-1H-1,2,3-triazol-4-yl)methyl]-3,5-bis(4-tert-butylbenzylidene)piperidin-4-one] | – | – | – | – | –
27 | 146 | CCCCCn1cc(CN2CC(=Cc3ccc(C(C)(C)C)cc3)C(=O)C(=Cc3ccc(C(C)(C)C)cc3)C2)nn1 [14c, 3,5-Bis(4-tert-butylbenzylidene)-1-[(1-pentyl-1H-1,2,3-triazol-4-yl)methyl]piperidin-4-one] | – | – | – | – | –
28 | 133 | CCCc1ccc(C=C2CN(Cc3cn(CCC)nn3)CC(=Cc3ccc(CCC)cc3)C2=O)cc1 [15a, 1-[(1-Propyl-1H-1,2,3-triazol-4-yl)methyl]-3,5-bis(4-propylbenzylidene)piperidin-4-one] | – | – | – | – | –
29 | 134 | CCCCCn1cc(CN2CC(=Cc3ccc(CCC)cc3)C(=O)C(=Cc3ccc(CCC)cc3)C2)nn1 [15c, 1-[(1-Pentyl-1H-1,2,3-triazol-4-yl)methyl]-3,5-bis(4-propylbenzylidene)piperidin-4-one] | – | – | – | – | –
30 | 127 | CCCCc1ccc(C=C2CN(Cc3cn(CCC)nn3)CC(=Cc3ccc(CCCC)cc3)C2=O)cc1 [16a, 3,5-Bis(4-butylbenzylidene)-1-[(1-propyl-1H-1,2,3-triazol-4-yl)methyl]piperidin-4-one] | – | – | – | – | –
31 | 136 | CCCCc1ccc(C=C2CN(Cc3cn(CCCC)nn3)CC(=Cc3ccc(CCCC)cc3)C2=O)cc1 [16b, 1-[(1-Butyl-1H-1,2,3-triazol-4-yl)methyl]-3,5-bis(4-butylbenzylidene)piperidin-4-one] | – | – | – | – | –
32 | 145 | CCCCCn1cc(CN2CC(=Cc3ccc(CCCC)cc3)C(=O)C(=Cc3ccc(CCCC)cc3)C2)nn1 [16c, 3,5-Bis(4-butylbenzylidene)-1-[(1-pentyl-1H-1,2,3-triazol-4-yl)methyl]piperidin-4-one] | – | – | – | – | –
